Reference: patent publication US5514694A, “Peptidyl ketoamides” (Georgia Tech Research Corp, priority 1993, dated 1996)
Where two headings read alike, the source gives them in different places.

Assays:
Assay type in all cases: biochemical
[1] = molecular target: T1, Human leukocyte cathepsin G (Homo sapiens, UniProt P08311); experiment: Cathepsin G inhibition, Suc-Val-Pro-Phe-NA hydrolysis; settings: for IC50: Table 4, Z-Leu--AA--CONH-R; for Ki: Table 4, in brackets under the IC50, read-out: KI Cat G
T1 sequence (P08311 21-255): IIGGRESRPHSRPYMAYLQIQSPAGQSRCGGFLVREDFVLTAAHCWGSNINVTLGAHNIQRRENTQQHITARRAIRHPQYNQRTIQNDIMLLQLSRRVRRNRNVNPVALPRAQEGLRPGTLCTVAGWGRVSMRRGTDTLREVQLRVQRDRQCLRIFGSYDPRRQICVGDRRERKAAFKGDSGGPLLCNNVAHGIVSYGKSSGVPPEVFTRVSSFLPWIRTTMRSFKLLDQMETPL
Protocol: (§1) Peptide α-ketoamides were assayed as reversible enzyme inhibitors. Various concentrations of inhibitors in Me2 SO were added to the assay mixture which contained buffer and substrate. The reaction was started by the addition of the enzyme and the hydrolysis rates were followed spectrophotometrically or fluorimetrically.
(§2) A 0.1M Hepes, 0.5M NaCl, pH 7.5 buffer was utilized for human leukocyte elastase (HLE), porcine pancreatic elastase (PPE), chymotrypsin and cathepsin G. A 0.1 Hepes, 0.01 M CaCl2, pH 7.5 buffer was utilized for trypsin, plasmin, and coagulation enzymes. A 50 mM Tris.HCl, 2 mM EDTA, 5 mM cysteine, pH 7.5 was used as a buffer for papain. A 88 mM KH2 PO4, 12 mM Na2 HPO4, 1.33 mM EDTA, 2.7 mM cysteine, pH 6.0 solution was used as a buffer for cathepsin B. A 20 mM Hepes, 10 mM CaCl2, 10 mM mercatoethanol, pH 7.2 buffer was utilized for calpain I and calpain II.
(§3) HLE and PPE were assayed with MeO-Suc-Ala-Ala-Pro-Val-NA and Suc-Ala-Ala-Ala-NA, respectively Nakajima et al., J. Biol. Chem. 254, 4027-4032 (1979); incorporated herein by reference!. Human leukocyte cathepsin G and chymotrypsin Aα were assayed with Suc-Val-Pro-Phe-NA Tanaka et al., Biochemistry 24, 2040-2047 (1985); incorporated herein by reference!. The hydrolysis of peptide 4-nitroanilides was measured at 410 nm ε410 =8800 M^-1 cm^-1; Erlanger et al., Arch. Biochem. Biophys. 95, pp 271-278 (1961); incorporated herein by reference!. Trypsin, thrombin, human plasma kallikrein, porcine pancreatic kallikrein, human factor XIa, and human plasmin were assayed with Z-Arg-SBzl or Z-Gly-Arg-SBu-i McRae et al., Biochemistry 20, 7196-7206 (1981); incorporated herein by reference!. All peptide thioester hydrolysis rates were measured with assay mixtures containing 4,4'-dithiodipyridine ε324 =19800 M^-1 cm^-1; Grasetti & Murray, Arch. Biochem. Biophys. 119, 41-49 (1967); incorporated herein by reference!.

[2] = molecular target: T2, human leukocyte elastase (HLE) (Homo sapiens, UniProt P08246); experiment: HLE inhibition, MeO-Suc-Ala-Ala-Pro-Val-NA hydrolysis; settings: for IC50: Table 4, Z-Leu--AA--CONH-R; for Ki: Table 4, in brackets under the IC50
T2 sequence (P08246 30-267): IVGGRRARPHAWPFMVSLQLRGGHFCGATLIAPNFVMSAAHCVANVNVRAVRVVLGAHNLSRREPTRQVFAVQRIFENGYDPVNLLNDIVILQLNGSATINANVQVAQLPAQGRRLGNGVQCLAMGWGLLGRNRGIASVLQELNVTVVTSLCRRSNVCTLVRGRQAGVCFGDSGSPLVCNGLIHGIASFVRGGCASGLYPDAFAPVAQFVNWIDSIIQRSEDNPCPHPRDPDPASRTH
Protocol: as §1, §2, §3

calpain II from rabbit = experiment: Calpain II inhibition, Suc-Leu-Tyr-AMC hydrolysis (KI); settings: Table 1, Z-Leu--AA--CONHR; read-out: KI Cal II
Protocol: (§4) HEPES, heparin, and A23187 were obtained from Calbiochem. Suc-Leu-Tyr-AMC and chromogenic substrates were obtained from Sigma. Calpain I was purified from human erythrocytes according to the method of Kitahara (Kitahara et al., J. Biochem. 95, 1759-1766) omitting the Blue-Sepharose step. Calpain II from rabbit muscle and cathepsin B were purchased from Sigma. Papain was purchased from Calbiochem.
as §1
(§5) Calpain I from human erythrocytes and calpain II from rabbit were assayed using Suc-Leu-Tyr-AMC Sasaki et al., J. Biol. Chem. 259, 12489-12494 (1984); incorporated herein by reference!, and the AMC (7-amino-4-methylcoumarin) release was followed fluorimetrically (excitation at 380 nm, and emmision at 460 nm). Calpains were assayed in 25 mM Tris pH=8.0, 10 mM CaC12. Fluorescence was followed using a Gilson FL-1A fluorometer or a Perkin-Elmer 203 Fluorescence spectrometer. Cathepsin B was assayed in 20 mM sodium acetate pH=5.2, 0.5 mM dithiothreitol using Bz-Phe-Val-Arg-p-nitroanilide as substrate. Alternately, cathepsin B was assayed with Z-Arg-Arg-AFC Barrett and Kirschke, Methods Enzymol. 80, 535-561 (1981); incorporated herein by reference!, and the AFC (7-amino-4-trifluoromethylcoumarin) release was followed fluorimetrically (excitation at 400 nm and emmision at 505 nm). Papain was assayed in 100 mM KPO4, 1 mM EDTA, 2.5 mM cysteine pH=6.0 using Bz-Arg-AMC or Bz-Arg-NA Kanaoka et al., Chem. Pharm. Bull. 25, 3126-3128 (1977); incorporated herein by reference! as a substrate. The AMC (7-amino-4-methylcoumarin) release was followed fluorimetrically (excitation at 380 nm, and emmision at 460 nm). Enzymatic hydrolysis rates were measured at various substrate and inhibitor concentrations, and KI values were determined by either Lineweaver-Burk plots or Dixon plots.
as §2

cathepsin B = molecular target: T3, cathepsin B (Homo sapiens, UniProt P07858); experiment: Cathepsin B inhibition (KI); settings: Table 1, Z-Leu--AA--CONHR; read-out: KI Cat B
T3 construct: purchased Sigma
Protocol: as §4, §1, §5, §2

[3] = molecular target: T4, Calpain I from human erythrocytes (Homo sapiens, UniProt P07384); experiment: Calpain I inhibition, Suc-Leu-Tyr-AMC hydrolysis (KI); settings: read-out: KI Cal I
T4 construct: Calpain I was purified from human erythrocytes; from tissue; host or cells: human erythrocytes
T4 sequence (P07384 1-714): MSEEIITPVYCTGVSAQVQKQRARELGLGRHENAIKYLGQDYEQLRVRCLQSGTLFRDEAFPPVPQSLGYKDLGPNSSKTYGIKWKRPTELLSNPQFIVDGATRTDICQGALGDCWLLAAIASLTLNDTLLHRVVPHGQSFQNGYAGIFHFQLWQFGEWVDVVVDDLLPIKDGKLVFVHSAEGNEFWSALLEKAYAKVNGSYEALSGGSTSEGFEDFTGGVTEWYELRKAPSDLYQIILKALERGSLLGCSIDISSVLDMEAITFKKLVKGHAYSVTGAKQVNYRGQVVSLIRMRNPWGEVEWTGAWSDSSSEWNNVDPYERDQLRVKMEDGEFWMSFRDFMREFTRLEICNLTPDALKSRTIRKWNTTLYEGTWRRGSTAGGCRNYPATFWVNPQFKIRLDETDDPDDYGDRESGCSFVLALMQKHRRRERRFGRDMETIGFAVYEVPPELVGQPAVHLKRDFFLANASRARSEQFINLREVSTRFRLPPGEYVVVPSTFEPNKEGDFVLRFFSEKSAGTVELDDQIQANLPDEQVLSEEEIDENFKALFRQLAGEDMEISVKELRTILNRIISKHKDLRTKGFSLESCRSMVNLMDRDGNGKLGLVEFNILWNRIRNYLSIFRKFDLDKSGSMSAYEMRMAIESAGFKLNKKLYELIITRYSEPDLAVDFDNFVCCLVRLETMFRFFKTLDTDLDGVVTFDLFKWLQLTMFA
T4 sequence (P04632 1-268 partner): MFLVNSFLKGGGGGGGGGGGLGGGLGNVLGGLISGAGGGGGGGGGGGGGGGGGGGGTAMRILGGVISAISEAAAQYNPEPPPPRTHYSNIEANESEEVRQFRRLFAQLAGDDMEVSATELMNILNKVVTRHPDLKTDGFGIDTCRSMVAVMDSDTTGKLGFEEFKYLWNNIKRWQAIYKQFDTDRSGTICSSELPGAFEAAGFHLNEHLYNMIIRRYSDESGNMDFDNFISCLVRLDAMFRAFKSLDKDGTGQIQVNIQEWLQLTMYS
Method in brief: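 Reversible KI values came from Lineweaver-Burk or Dixon plots of rates at varied substrate and inhibitor (in Me2SO) levels, with reactions started by enzyme. Calpains (human erythrocyte I, rabbit muscle II) hydrolysed Suc-Leu-Tyr-AMC in 25 mM Tris pH 8.0, 10 mM CaCl2 (ex 380/em 460 nm). Cathepsin B used Bz-Phe-Val-Arg-pNA (20 mM acetate pH 5.2, 0.5 mM DTT) or Z-Arg-Arg-AFC.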

IC50 [1] [µM]	IC50 [2] [µM]	Compound	also measured
66	22	CC(C)C[C@H](NC(=O)OCc1ccccc1)C(=O)N[C@@H](Cc1ccccc1)C(=O)C(=O)NCC(O)c1ccc(OCc2ccccc2)c(OCc2ccccc2)c1 (stereo partly drawn) [Z-Leu-Phe-CONH-C6 H3 (3,4-(OCH2 Ph)2), Z-Leu-Phe-CONH--CH2 CH(OH)C6 H3 (3,4-(OCH2 Ph)2)]	–
–	> 217	CCC(NC(=O)C(CC(C)C)NC(=O)OCc1ccccc1)C(=O)C(=O)NCCCN1CCOCC1 (stereo not drawn) [Z-Leu-Abu-CONH-(CH2)3 -4-morpholinyl, Z-Leu-Abu-CONH--(CH2)3 -4-Morpholinyl]	Ki (calpain II from rabbit): 0.041 µM; Ki (cathepsin B): 6.9 µM; Ki ([3]; Table 1, Z-Leu--AA--CONHR): 0.14 µM
134	78	CCC(NC(=O)C(CC(C)C)NC(=O)OCc1ccccc1)C(=O)C(=O)NCC(C)C (stereo not drawn) [Z-Leu-Abu-CONH-i-Bu]	–
148	63	CCCCNC(=O)C(=O)C(CC)NC(=O)C(CC(C)C)NC(=O)OCc1ccccc1 (stereo not drawn) [Z-Leu-Abu-CONH-n-Bu]	–
> 102	–	CC[C@H](NC(=O)[C@H](CC(C)C)NC(=O)OCc1ccccc1)C(=O)C(=O)NCC(O)c1ccc(OCc2ccccc2)cc1 (stereo partly drawn) [Z-Leu-Abu-CONH--CH2 CH(OH)C6 H4 (4-OCH2 Ph)]	Ki ([3]; Table 2, Z-Leu--AA--CONH--CH2 CH(OH)-R): 0.08 µM
112	24	CC(C)CC(NC(=O)OCc1ccccc1)C(=O)NC(Cc1ccccc1)C(=O)C(=O)NCCc1ccccc1 (stereo not drawn) [Z-Leu-Phe-CONH-(CH2)2 Ph]	–
> 217	> 120	CCCNC(=O)C(=O)C(CC)NC(=O)C(CC(C)C)NC(=O)OCc1ccccc1 (stereo not drawn) [Z-Leu-Abu-CONH-n-Pr]	–
150	78	CCCCCCCCCNC(=O)C(=O)C(CC)NC(=O)C(CC(C)C)NC(=O)OCc1ccccc1 (stereo not drawn) [Z-Leu-Abu-CONH-C9 H19]	–
> 217	> 120	CCC(NC(=O)C(CC(C)C)NC(=O)OCc1ccccc1)C(=O)C(N)=O (stereo not drawn) [Z-Leu-Abu-CONH-H]	–
> 116	52	CCCCCCCNC(=O)C(=O)C(CC)NC(=O)C(CC(C)C)NC(=O)OCc1ccccc1 (stereo not drawn) [Z-Leu-Abu-CONH-C7 H15]	–

The remaining lines, values behind:

Compound	IC50 [1] [µM]	IC50 [2] [µM]	also measured
CC(C)CNC(=O)C(=O)C(Cc1ccccc1)NC(=O)C(CC(C)C)NC(=O)OCc1ccccc1 (stereo not drawn) [Z-Leu-Phe-CONH-i-Bu]	45	20	Ki [1]: 21 µM; Ki [2]: 10 µM
CCNC(=O)C(=O)[C@H](Cc1ccccc1)NC(=O)[C@H](CC(C)C)NC(=O)OCc1ccccc1 [Z-Leu-Phe-CONH-Et, Z-Leu-Phe-CO--NH-Et]	91	74	–
CCCNC(=O)C(=O)C(Cc1ccccc1)NC(=O)C(CC(C)C)NC(=O)OCc1ccccc1 (stereo not drawn) [Z-Leu-Phe-CONH-n-Pr]	65	44	–
Z-Leu-Phe-CONH--CH2 CH(OH)C6 H4 (4-OPh) [Z-Leu-Phe-CONH-CH2 CH(OH)-C6 H4 (4-OPh)]	> 102	32	–
CCCCNC(=O)C(=O)C(Cc1ccccc1)NC(=O)C(CC(C)C)NC(=O)OCc1ccccc1 (stereo not drawn) [Z-Leu-Phe-CONH-n-Bu]	68	16	Ki [1]: 4.9 µM; Ki [2]: 11 µM
CC(C)C[C@H](NC(=O)OCc1ccccc1)C(=O)N[C@@H](Cc1ccccc1)C(=O)C(N)=O [Z-Leu-Phe-CONH-H]	80	100	–
CCCCCCCCNC(=O)C(=O)C(CC)NC(=O)C(CC(C)C)NC(=O)OCc1ccccc1 (stereo not drawn) [Z-Leu-Abu-CONH-C8 H17]	> 217	45	–
CC(C)CC(NC(=O)OCc1ccccc1)C(=O)NC(Cc1ccccc1)C(=O)C(=O)NCc1ccccc1 (stereo not drawn) [Z-Leu-Phe-CONH-CH2 Ph]	63	40	–
CCC(C)NC(=O)C(=O)C(Cc1ccccc1)NC(=O)C(CC(C)C)NC(=O)OCc1ccccc1 (stereo not drawn) [Z-Leu-Phe-CONH-sec-Bu]	128	50	–
CC(C)CC(NC(=O)OCc1ccccc1)C(=O)NC(Cc1ccccc1)C(=O)C(=O)NCC(O)c1ccc(OCc2ccccc2)cc1 (stereo not drawn) [Z-Leu-Phe-CONH--CH2 CH(OH)C6 H4 (4-OCH2 Ph)]	58	40	–
CCC(NC(=O)C(CC(C)C)NC(=O)OCc1ccccc1)C(=O)C(=O)NCc1ccco1 (stereo not drawn) [Z-Leu-Abu-CONH-CH2 -2-furyl, Z-Leu-Abu-CONH--CH2 -2-Furyl]	–	38	Ki (calpain II from rabbit): 0.033 µM; Ki (cathepsin B): 6 µM; Ki ([3]; Table 1, Z-Leu--AA--CONHR): 0.8 µM
